Measured values: the supplement of paper PMC10307832

Assays:
Assay in all cases: relative viability (nuclei count vs DMSO), 5 days (fraction); higher = more cells survive
RERF-LC-KJ = system: RERF-LC-KJ
Summary of the method: (§1)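 One day after seeding in 1536-well plates, lung cancer cell lines were dosed by pin tool. Dosing was either single-drug or a fixed anchor-drug dose plus five library-drug doses (not always all listed) in √10 steps. After 5 days, nuclei were stained in one fix-and-stain step and counted on 4× images, and relative viability is the nuclei count of treated wells over that of vehicle wells, given as the median of duplicate plates.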

NCI-H460 = system: NCI-H460
Summary of the method: as §1

NCI-H647 = system: NCI-H647
Summary of the method: as §1

NCI-H2342 = system: NCI-H2342
Summary of the method: as §1

NCI-H1734 = system: NCI-H1734
Summary of the method: as §1

HOP-62 = system: HOP-62
Summary of the method: as §1

A-427 = system: A-427
Summary of the method: as §1

LC-2-ad = system: LC-2-ad
Summary of the method: as §1

NCI-H2347 = system: NCI-H2347
Summary of the method: as §1

SW 1573 = system: SW 1573
Summary of the method: as §1

NCI-H2228 = system: NCI-H2228
Summary of the method: as §1

HCC-78 = system: HCC-78
Summary of the method: as §1

NCI-H2126 = system: NCI-H2126
Summary of the method: as §1

NCI-H1915 = system: NCI-H1915
Summary of the method: as §1

SK-LU-1 = system: SK-LU-1
Summary of the method: as §1

LXF-289 = system: LXF-289
Summary of the method: as §1

HCC-15 = system: HCC-15
Summary of the method: as §1

NCI-H1755 = system: NCI-H1755
Summary of the method: as §1

NCI-H1975 = system: NCI-H1975
Summary of the method: as §1

PC-3 [JPC-3] = system: PC-3 [JPC-3]
Summary of the method: as §1

LOU-NH91 = system: LOU-NH91
Summary of the method: as §1

NCI-H358 = system: NCI-H358
Summary of the method: as §1

Structure (SMILES): COc1cc(N2CCC(C(N)=O)CC2)ccc1Nc1nc(N)c(Cl)c(Nc2ccccc2S(=O)(=O)C(C)C)n1 [HG-5-88-01] + COc1cc2c(Oc3ccc(NC(=O)C4(C(=O)Nc5ccc(F)cc5)CC4)cc3F)ccnc2cc1OCCCN1CCOCC1 [Foretinib] (partner 0.25 µM)
- relative viability (RERF-LC-KJ; first compound 0.04 µM): 0.869
- relative viability (RERF-LC-KJ; first compound 0.1265 µM): 0.849
- relative viability (RERF-LC-KJ; first compound 0.4 µM): 0.839
- relative viability (RERF-LC-KJ; first compound 1.265 µM): 0.836
- relative viability (RERF-LC-KJ; first compound 4 µM): 0.846
- relative viability (NCI-H460; first compound 0.04 µM): 1.03
- relative viability (NCI-H460; first compound 0.1265 µM): 1.01
- relative viability (NCI-H460; first compound 0.4 µM): 0.929
- relative viability (NCI-H460; first compound 1.265 µM): 0.959
- relative viability (NCI-H460; first compound 4 µM): 0.926
- relative viability (NCI-H647; first compound 0.04 µM): 1.33
- relative viability (NCI-H647; first compound 0.1265 µM): 1.07
- relative viability (NCI-H647; first compound 0.4 µM): 1.28
- relative viability (NCI-H647; first compound 1.265 µM): 1.05
- relative viability (NCI-H647; first compound 4 µM): 1.31
- relative viability (NCI-H2342; first compound 0.04 µM): 1.19
- relative viability (NCI-H2342; first compound 0.1265 µM): 1.06
- relative viability (NCI-H2342; first compound 0.4 µM): 1.13
- relative viability (NCI-H2342; first compound 1.265 µM): 0.697
- relative viability (NCI-H2342; first compound 4 µM): 1.04
- relative viability (NCI-H1734; first compound 0.04 µM): 1.05
- relative viability (NCI-H1734; first compound 0.1265 µM): 0.8
- relative viability (NCI-H1734; first compound 0.4 µM): 0.793
- relative viability (NCI-H1734; first compound 1.265 µM): 0.576
- relative viability (NCI-H1734; first compound 4 µM): 0.644
- relative viability (HOP-62; first compound 0.04 µM): 1.15
- relative viability (HOP-62; first compound 0.1265 µM): 1.12
- relative viability (HOP-62; first compound 0.4 µM): 1.01
- relative viability (HOP-62; first compound 1.265 µM): 1.13
- relative viability (HOP-62; first compound 4 µM): 1.3
- relative viability (A-427; first compound 0.04 µM): 1.13
- relative viability (A-427; first compound 0.1265 µM): 1.13
- relative viability (A-427; first compound 0.4 µM): 0.953
- relative viability (A-427; first compound 1.265 µM): 1.08
- relative viability (A-427; first compound 4 µM): 1.08
- relative viability (LC-2-ad; first compound 0.04 µM): 0.987
- relative viability (LC-2-ad; first compound 0.1265 µM): 0.906
- relative viability (LC-2-ad; first compound 0.4 µM): 0.956
- relative viability (LC-2-ad; first compound 1.265 µM): 0.54
- relative viability (LC-2-ad; first compound 4 µM): 0.739
- relative viability (NCI-H2347; first compound 0.04 µM): 0.845
- relative viability (NCI-H2347; first compound 0.1265 µM): 0.974
- relative viability (NCI-H2347; first compound 0.4 µM): 1.03
- relative viability (NCI-H2347; first compound 1.265 µM): 0.65
- relative viability (NCI-H2347; first compound 4 µM): 0.452
- relative viability (SW 1573; first compound 0.04 µM): 0.868
- relative viability (SW 1573; first compound 0.1265 µM): 0.816
- relative viability (SW 1573; first compound 0.4 µM): 0.942
- relative viability (SW 1573; first compound 1.265 µM): 0.736
- relative viability (SW 1573; first compound 4 µM): 0.624
- relative viability (NCI-H2228; first compound 0.04 µM): 0.593
- relative viability (NCI-H2228; first compound 0.1265 µM): 0.327
- relative viability (NCI-H2228; first compound 0.4 µM): 0.353
- relative viability (NCI-H2228; first compound 1.265 µM): 0.219
- relative viability (NCI-H2228; first compound 4 µM): 0.27
- relative viability (HCC-78; first compound 0.04 µM): 0.589
- relative viability (HCC-78; first compound 0.1265 µM): 0.533
- relative viability (HCC-78; first compound 0.4 µM): 0.583
- relative viability (HCC-78; first compound 1.265 µM): 0.377
- relative viability (HCC-78; first compound 4 µM): 0.464
- relative viability (NCI-H2126; first compound 0.1265 µM): 1.22
- relative viability (NCI-H2126; first compound 0.4 µM): 1.05
- relative viability (NCI-H2126; first compound 1.265 µM): 0.937
- relative viability (NCI-H2126; first compound 4 µM): 1.23
- relative viability (NCI-H1915; first compound 0.04 µM): 1.22
- relative viability (NCI-H1915; first compound 0.1265 µM): 1.22
- relative viability (NCI-H1915; first compound 0.4 µM): 1.04
- relative viability (NCI-H1915; first compound 1.265 µM): 1.2
- relative viability (NCI-H1915; first compound 4 µM): 1.04
- relative viability (SK-LU-1; first compound 0.04 µM): 0.839
- relative viability (SK-LU-1; first compound 0.1265 µM): 0.834
- relative viability (SK-LU-1; first compound 0.4 µM): 0.751
- relative viability (SK-LU-1; first compound 1.265 µM): 0.738
- relative viability (SK-LU-1; first compound 4 µM): 0.618
- relative viability (LXF-289; first compound 0.04 µM): 1.04
- relative viability (LXF-289; first compound 0.1265 µM): 0.937
- relative viability (LXF-289; first compound 0.4 µM): 0.977
- relative viability (LXF-289; first compound 1.265 µM): 0.977
- relative viability (LXF-289; first compound 4 µM): 1.05
- relative viability (HCC-15; first compound 0.04 µM): 1.02
- relative viability (HCC-15; first compound 0.1265 µM): 1.01
- relative viability (HCC-15; first compound 0.4 µM): 0.946
- relative viability (HCC-15; first compound 1.265 µM): 0.867
- relative viability (HCC-15; first compound 4 µM): 0.703
- relative viability (NCI-H1755; first compound 0.04 µM): 0.876
- relative viability (NCI-H1755; first compound 0.1265 µM): 0.895
- relative viability (NCI-H1755; first compound 0.4 µM): 0.863
- relative viability (NCI-H1755; first compound 1.265 µM): 0.858
- relative viability (NCI-H1755; first compound 4 µM): 0.873
- relative viability (NCI-H1975; first compound 0.04 µM): 1.08
- relative viability (NCI-H1975; first compound 0.1265 µM): 0.923
- relative viability (NCI-H1975; first compound 0.4 µM): 0.814
- relative viability (NCI-H1975; first compound 1.265 µM): 0.916
- relative viability (NCI-H1975; first compound 4 µM): 0.397
- relative viability (PC-3 [JPC-3]; first compound 0.04 µM): 1.07
- relative viability (PC-3 [JPC-3]; first compound 0.1265 µM): 1.04
- relative viability (PC-3 [JPC-3]; first compound 0.4 µM): 1.03
- relative viability (PC-3 [JPC-3]; first compound 1.265 µM): 0.99
- relative viability (PC-3 [JPC-3]; first compound 4 µM): 0.724
- relative viability (LOU-NH91; first compound 0.04 µM): 0.905
- relative viability (LOU-NH91; first compound 0.1265 µM): 0.902
- relative viability (LOU-NH91; first compound 0.4 µM): 0.872
- relative viability (LOU-NH91; first compound 1.265 µM): 0.455
- relative viability (LOU-NH91; first compound 4 µM): 0.672
- relative viability (NCI-H358; first compound 0.04 µM): 0.676
- relative viability (NCI-H358; first compound 0.1265 µM): 0.605
- relative viability (NCI-H358; first compound 0.4 µM): 0.479
- relative viability (NCI-H358; first compound 1.265 µM): 0.224
- relative viability (NCI-H358; first compound 4 µM): 0.23
